We go through 23 compounds from patent publication US20260028340A1 (Supernus Pharmaceuticals, Inc., priority 2023, published 2026).

The structures appear in SMILES notation.

Series [1] can be described thus: Pharmacokinetic data in CD-1 mice after oral administration. Type of series: in vivo. The note with it: 10 mg/kg molar equivalent to Cmpd. A (nominal), serum; for AUC(0-t) / Cmax / Tmax / AUC(0-inf) / half-life: mouse, analyte: dosed derivative (DV). The method, then: Pharmacokinetic (PK) data was generated using twelve CD-1 mice treated with oral administration of the compound with a dose volume of 10 mg/kg (a molar equivalent to 5-(4-chlorophenyl)-2,3-dihydroimidazo[1,2-b]isoindol-5-ol (“Compound A,” “Cmpd. A,” or “A”)), and a nominal strength of 1 mg/mL. The serum was analyzed in triplicate with 200 mM K2EDTA anticoagulant.

Test in series [2]: as above
The format is in vivo. The note with it: mouse, serum, Table 7: CD-1 mice, nominal dose 5.10 mg/kg Cmpd. A or 6.57-8.40 mg/kg DV salt, analyte: dosed derivative (DV).

One may read the AUC(0-t) as the area under the concentration-time curve up to a stated or last time point. As usually defined, the Cmax is the highest concentration seen after dosing. For orientation: Tmax means the time from dosing to the highest level. As to `CC(C)C(NC(=O)OC(C)(C)C)C(=O)N1CCN=C1c1ccccc1C(=O)c1ccc(Cl)cc1` (stereo not shown), in series [1], the “PK parameters / level of analyte A (Cmpd. A) after dosing the derivative” value (shortened to “PK parameters / level”) is “NC (BLQ at all the time points)”, the AUC(0-t) is 56.5 ng·h/mL, the Cmax is 61.2 ng/mL and the Tmax came out at 15 min.

The AUC(0-inf) is the area under the concentration-time curve extrapolated to infinity. The half-life is how long it takes for the measured level to halve. With `Clc1ccc(C2(OCc3ccccc3)c3ccccc3C3=NCCN32)cc1` (stereo not shown) [Compound I-1, 5-(benzyloxy)-5-(4-chlorophenyl)-2,5-dihydro-3H-imidazo[2,1-a]isoindole], in series [1], the total exposure AUC(0-inf) came out at 141 ng·h/mL, the AUC(0-t) came out at 137 ng·h/mL, the Cmax amounted to 68.2 ng/mL and the Tmax amounted to 15 min. The half-life in series [1] was 96 min.

As for `COc1ccc(COC2(c3ccc(Cl)cc3)c3ccccc3C3=NCCN32)cc1` (stereo not shown) [Compound I-2, 5-(4-chlorophenyl)-5-((4-methoxybenzyl)oxy)-2,5-dihydro-3H-imidazo[2,1-a]isoindole], in series [1], the AUC(0-inf) worked out at 268 ng·h/mL, the AUC(0-t) is 260 ng·h/mL, the Cmax amounted to 234 ng/mL and the Tmax amounted to 15 min. Also, the half-life in series [1] was 108 min.

Regarding `C=CCOC1(c2ccc(Cl)cc2)c2ccccc2C2=NCCN21` (stereo not shown) [Compound I-3, 5-(allyloxy)-5-(4-chlorophenyl)-2,5-dihydro-3H-imidazo[2,1-a]isoindole], in series [1], the AUC(0-inf) came to 88.9 ng·h/mL, the AUC(0-t) worked out at 73.7 ng·h/mL, the Cmax came out at 52.9 ng/mL and the Tmax was determined as 30 min. Also, in series [1], the half-life was 102 min.

With `COCCOC1(c2ccc(Cl)cc2)c2ccccc2C2=NCCN21` (stereo not shown) [Compound I-4, 5-(4-chlorophenyl)-5-(2-methoxyethoxy)-2,5-dihydro-3H-imidazo[2,1-a]isoindole], in series [1], the AUC(0-inf) came out at 586 ng·h/mL, the AUC(0-t) turned out to be 568 ng·h/mL, the Cmax came to 475 ng/mL and the Tmax is 15 min. The half-life in series [1] was 108 min.

Consider `COC1(c2ccc(Cl)cc2)c2ccccc2C2=NCCN21` (stereo not shown) [Compound I-6, 5-(4-chlorophenyl)-5-methoxy-2,5-dihydro-3H-imidazo[2,1-a]isoindole], for which, in series [1], the AUC(0-inf) was determined as 66.6 ng·h/mL, the AUC(0-t) is 64.7 ng·h/mL, the Cmax turned out to be 72 ng/mL and the Tmax is 30 min. Also, in series [1], the half-life was 51 min.

`Clc1ccc(C2(OCc3ccc4c(c3)OCO4)c3ccccc3C3=NCCN32)cc1` (stereo not shown) [Compound I-7, 5-(benzo[d][1.3]dioxol-5-ylmethoxy)-5-(4-chlorophenyl)-2,5-dihydro-3H-imidazo[2,1-a]isoindole]: in series [1], the AUC(0-inf) is 358 ng·h/mL, the AUC(0-t) is 307 ng·h/mL, the Cmax was found to be 211 ng/mL and the Tmax was found to be 15 min. Also, the half-life in series [1] was 85.2 min.

Regarding `CCOC1(c2ccc(Cl)cc2)c2ccccc2C2=NCCN21` (stereo not shown) [Compound I-8, 5-(4-chlorophenyl)-5-ethoxy-2,5-dihydro-3H-imidazo[2,1-a]isoindole], in series [1], the AUC(0-inf) is 72.4 ng·h/mL, the AUC(0-t) turned out to be 48.5 ng·h/mL, the Cmax was 32 ng/mL and the Tmax stood at 30 min. In series [1], the half-life was 127 min.

On to `CC(C)=CCOC1(c2ccc(Cl)cc2)c2ccccc2C2=NCCN21` (stereo not shown) [Compound I-9, 5-(4-chlorophenyl)-5-((3-methylbut-2-en-1-yl)oxy)-2,5-dihydro-3H-imidazo[2,1-a]isoindole], for which, in series [1], the AUC(0-inf) was determined as 59.8 ng·h/mL, the AUC(0-t) was 55.1 ng·h/mL, the Cmax was 124 ng/mL and the Tmax was 15 min. For the same compound, the half-life in series [1] was 85.2 min.

On to `CC(C)COC1(c2ccc(Cl)cc2)c2ccccc2C2=NCCN21` (stereo not shown) [Compound I-10, 5-(4-chlorophenyl)-5-isobutoxy-2,5-dihydro-3H-imidazo[2,1-a]isoindole], for which, in series [1], the AUC(0-inf) is 112 ng·h/mL, the AUC(0-t) worked out at 94.6 ng·h/mL, the Cmax is 82.5 ng/mL and the Tmax is 15 min. Besides, in series [1], the half-life was 97.8 min.

As for `CC(C)=CCC/C(C)=C/COC1(c2ccc(Cl)cc2)c2ccccc2C2=NCCN21` (stereo not shown) [Compound I-11, (E)-5-(4-chlorophenyl)-5-((3,7-dimethylocta-2,6-dien-1-yl)oxy)-2,5-dihydro-3H-imidazo[2,1-a]isoindole], in series [1], the AUC(0-inf) worked out at 44 ng·h/mL, the AUC(0-t) came out at 39.7 ng·h/mL, the Cmax is 27.7 ng/mL and the Tmax turned out to be 15 min. In series [1], the half-life was 69.6 min.

In the case of `COCCOCCOCCOC1(c2ccc(Cl)cc2)c2ccccc2C2=NCCN21` (stereo not shown) [Compound I-12, 5-(4-chlorophenyl)-5-(2-(2-(2-methoxyethoxy)ethoxy)ethoxy)-2,5-dihydro-3H-imidazo[2,1-a]isoindole], in series [1], the AUC(0-t) was 68.9 ng·h/mL, the Cmax worked out at 67.6 ng/mL and the Tmax worked out at 30 min.

As to `CC(C)=CCC/C(C)=C/CC/C(C)=C/COC1(c2ccc(Cl)cc2)c2ccccc2C2=NCCN21` (stereo not shown) [Compound I-13, 5-(4-chlorophenyl)-5-(((2E,6E)-3,7,11-trimethyldodeca-2,6,10-trien-1-yl)oxy)-2,5-dihydro-3H-imidazo[2,1-a]isoindole], in series [1], the AUC(0-t) was found to be 337 ng·h/mL, the Cmax came out at 201 ng/mL and the Tmax worked out at 30 min.

Take `FC(F)(F)c1ccc(COC2(c3ccc(Cl)cc3)c3ccccc3C3=NCCN32)cc1` (stereo not shown) [Compound I-14, 5-(4-chlorophenyl)-5-((4-(trifluoromethyl)benzyl)oxy)-2,5-dihydro-3H-imidazo[2,1-a]isoindole]: in series [2], the AUC(0-inf) was 215 ng·h/mL, the AUC(0-t) turned out to be 183 ng·h/mL, the Cmax worked out at 56.1 ng/mL and the Tmax was found to be 30 min. Also, in series [2], the half-life is 163 min.

Take `COc1ccc(COC2(c3ccc(Cl)cc3)c3ccccc3C3=NCCN32)cc1OC` (stereo not shown) [Compound I-15, 5-(4-chlorophenyl)-5-((3,4-dimethoxybenzyl)oxy)-2,5-dihydro-3H-imidazo[2,1-a]isoindole]: in series [2], the AUC(0-inf) was 16 ng·h/mL, the AUC(0-t) came out at 12.7 ng·h/mL, the highest concentration (Cmax) came to 17.8 ng/mL and the Tmax worked out at 20 min. The half-life in series [2] was 29.8 min.

As for `Clc1ccc(COC2(c3ccc(Cl)cc3)c3ccccc3C3=NCCN32)cc1` (stereo not shown) [Compound I-16, 5-((4-chlorobenzyl)oxy)-5-(4-chlorophenyl)-2,5-dihydro-3H-imidazo[2,1-a]isoindole], in series [2], the AUC(0-inf) was determined as 224 ng·h/mL, the AUC(0-t) stood at 174 ng·h/mL, the Cmax was 53.3 ng/mL and the Tmax is 35 min. The half-life in series [2] is 194 min.

As for `CC(C)/C=C/COC1(c2ccc(Cl)cc2)c2ccccc2C2=NCCN21` (stereo not shown) [Compound I-17, (E)-5-(4-chlorophenyl)-5-((4-methylpent-2-en-1-yl)oxy)-2,5-dihydro-3H-imidazo[2,1-a]isoindole], in series [2], the AUC(0-inf) was determined as 33.2 ng·h/mL, the AUC(0-t) was found to be 27.6 ng·h/mL, the Cmax was determined as 25.7 ng/mL and the time of peak concentration (Tmax) turned out to be 15 min. Besides, in series [2], the half-life was 78 min.

On to `O=C(c1ccc(Cl)cc1)c1ccccc1C1=NCCN1C(=O)c1ccccc1` [II-1, (2-(1-benzoyl-4,5-dihydro-1H-imidazol-2-yl)phenyl) (4-chlorophenyl) methanone], for which, in series [1], the AUC(0-inf) stood at 21.8 ng·h/mL, the AUC(0-t) came out at 19.8 ng·h/mL, the Cmax was found to be 43 ng/mL and the Tmax is 15 min. The half-life in series [1] is 100 min.

Regarding `COc1ccc(C(=O)N2CCN=C2c2ccccc2C(=O)c2ccc(Cl)cc2)cc1` [II-2, (2-(2-(4-chlorobenzoyl)phenyl)-4,5-dihydro-1H-imidazol-1-yl) (4-methoxyphenyl) methanone], in series [1], the AUC(0-inf) is 624 ng·h/mL, the area under the curve AUC(0-t) came out at 611 ng·h/mL, the Cmax was 170 ng/mL and the Tmax stood at 30 min. The half-life in series [1] is 81.6 min.

Consider `Cc1ccc(C(=O)N2CCN=C2c2ccccc2C(=O)c2ccc(Cl)cc2)cc1` [II-3, (2-(2-(4-chlorobenzoyl)phenyl)-4,5-dihydro-1H-imidazol-1-yl) (p-tolyl) methanone], for which, in series [1], the AUC(0-inf) stood at 182 ng·h/mL, the AUC(0-t) is 163 ng·h/mL, the Cmax is 81.6 ng/mL and the Tmax was determined as 15 min. In addition, in series [1], the half-life was 132 min.

As to `O=C(c1ccc(Cl)cc1)c1ccccc1C1=NCCN1C(=O)c1ccc2c(c1)OCO2` [II-4, benzo[d][1.3]dioxol-5-yl(2-(2-(4-chlorobenzoyl)phenyl)-4,5-dihydro-1H-imidazol-1-yl) methanone], in series [1], the “PK parameters / level” value was “NC (BLQ at all the time points)”, the AUC(0-inf) came out at 238 ng·h/mL, the AUC(0-t) was 236 ng·h/mL and the Cmax is 50.3 ng/mL. For the same compound, in series [1], the Tmax amounted to 15 min and the half-life is 72 min.

On to `CN1CCN(C(=O)N2CCN=C2c2ccccc2C(=O)c2ccc(Cl)cc2)CC1` [II-6, (2-(2-(4-chlorobenzoyl)phenyl)-4,5-dihydro-1H-imidazol-1-yl) (4-methylpiperazin-1-yl) methanone], for which, in series [1], the AUC(0-inf) worked out at 548 ng·h/mL, the AUC(0-t) came to 531 ng·h/mL, the Cmax was 752 ng/mL and the Tmax is 15 min. The half-life in series [1] is 51 min.

Turning to `CC(C)(C(=O)N1CCN=C1c1ccccc1C(=O)c1ccc(Cl)cc1)C(=O)N1CCN=C1c1ccccc1C(=O)c1ccc(Cl)cc1` [III-1, 1,3-bis(2-(2-(4-chlorobenzoyl)phenyl)-4,5-dihydro-1H-imidazol-1-yl)-2,2-dimethylpropane-1,3-dione], in series [1], the “PK parameters / level” value is reported as “NC (BLQ at all the time points)”, the AUC(0-inf) stood at 369 ng·h/mL, the AUC(0-t) was found to be 366 ng·h/mL and the maximum concentration (Cmax) was 238 ng/mL. Further, in series [1], the Tmax was determined as 15 min and the half-life is 72 min.
